Molecular target: T1, endothelin-converting enzyme (ECE) (Homo sapiens, UniProt P42892)
T1 sequence (P42892 1-770): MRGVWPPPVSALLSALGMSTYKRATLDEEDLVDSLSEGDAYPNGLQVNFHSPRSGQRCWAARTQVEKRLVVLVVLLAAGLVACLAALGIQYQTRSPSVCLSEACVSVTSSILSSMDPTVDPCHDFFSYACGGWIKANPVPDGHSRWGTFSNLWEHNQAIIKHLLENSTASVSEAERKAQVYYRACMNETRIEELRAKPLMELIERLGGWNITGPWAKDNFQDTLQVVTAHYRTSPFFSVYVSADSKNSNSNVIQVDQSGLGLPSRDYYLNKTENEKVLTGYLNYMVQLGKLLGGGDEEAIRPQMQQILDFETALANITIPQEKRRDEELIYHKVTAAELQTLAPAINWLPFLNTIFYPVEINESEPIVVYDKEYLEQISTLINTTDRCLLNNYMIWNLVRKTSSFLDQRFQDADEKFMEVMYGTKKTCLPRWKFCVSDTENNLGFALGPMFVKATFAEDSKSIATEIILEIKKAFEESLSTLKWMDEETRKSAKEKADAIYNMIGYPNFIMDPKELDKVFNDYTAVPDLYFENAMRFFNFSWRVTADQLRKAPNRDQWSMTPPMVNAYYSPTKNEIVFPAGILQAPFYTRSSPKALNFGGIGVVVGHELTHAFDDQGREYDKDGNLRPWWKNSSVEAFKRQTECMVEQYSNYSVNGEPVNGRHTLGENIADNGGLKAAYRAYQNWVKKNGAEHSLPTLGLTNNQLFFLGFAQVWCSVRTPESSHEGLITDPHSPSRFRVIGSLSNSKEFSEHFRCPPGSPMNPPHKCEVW
Test: Determination of the inhibitory activity of the endothelin-converting enzyme (ECE), cleavage of (2,3-3H)propionyl-b-ET-1(19-35)
Format: biochemical
Conditions: purified ECE, pre-incubation 30 minutes at 37° C., Tris maleate buffer pH=6.5, incubation one hour at 37° C.; read-out: IC50 (concentration which causes a 50% inhibition of ECE)
Source text: A test is used, in which the product (2,3-^3H)propionyl-b-ET-1(19-35) prepared as indicated below in a) is cleaved by ECE into the product (2,3-^3H)propionyl-b-ET-1(19-21) in the presence of product P of which the inhibitory activity of ECE one wishes to determine as indicated below in b): the inhibitory activity of ECE of the product P will therefore be accordingly as high as the quantity of product of formula (II) formed, determined by counting the radioactivity, will be low. The operation is carried out as follows:
10 μl of ECE i.e. 1 to 2 μg of purified ECE are pre-incubated for 30 minutes at 37° C., in 400 μl of a 50 mM Tris maleate buffer pH=6.5, 20 μl of 5M sodium chloride and 5 μl of product P the inhibitory activity of which one wishes to test, in solution at different concentrations (comprised between […]) (i.e. final concentrations in product P of 10 nM to 1 mM).
The reaction is initiated by the addition of 10 μl of (2,3-^3H)propionyl-b-ET-1(19-35) prepared as indicated above in a), at a final concentration of 1.8.10^−12M.
After incubation for one hour at 37° C., the reaction is stopped by the addition of 600 μl of ethyl acetate and the (2,3-^3H)propionyl-b-ET-1(19-21) is extracted by mechanical agitation for 2 minutes.
300 μl of the organic phase is removed, 5 ml of liquid scintillator is added and the radioactivity is counted for 1 minute with a liquid scintillation counter.
Each measurement is carried out in triplicate except for the ECE control (control enzyme, without the product the ECE inhibitory activity of which one wishes to test), for which the measurement is carried out six times.
The percentage inhibition is calculated by establishing the relationship: [formula]
The blank is carried out starting with the solution obtained without enzyme.
From the cpm's obtained and by plotting the graph of the percentage of inhibition relative to the concentration of inhibitor (nM), the IC50 is calculated which therefore corresponds to the concentration which causes a 50% inhibition of ECE.

| IC50 [nM] | SMILES |
| --- | --- |
| 150 | N#Cc1ccccc1-c1ccc(CC(C(=O)O)C(=O)NC(CS)Cc2ccc(OS(=O)(=O)C(F)(F)F)cc2)cc1 (stereo not drawn) [Example 10, 2′-Cyano-alpha-[[[1-(mercaptomethyl) 2-(paratrifluoromethylsulphonyloxy)phenylethyl]amino]carbonyl](1,1′-biphenyl) 4-propanoic acid] |
| 220 | O=C(CCCCCCCCCCOc1ccccc1)N[C@@H](CS)Cc1ccccc1 [Example 6] |
| 30 | N#Cc1ccccc1-c1ccc(CC(C(=O)O)C(=O)N[C@@H](CS)Cc2ccccc2)cc1 (mixture of isomers) [Example 4, 2′-cyano-alpha-[[[1-(mercaptomethyl)-2-phenylethyl]amino]carbonyl]-(1,1′-biphenyl)-4-propanoic acid] |
